Results taken from US8466154B2, “Methods and compositions related to wrapping of dehydrons” (The Board of Regents of the University of Texas System, priority 2006, dated 2013).

How the values were obtained:
K562 cells = assay: Alamar blue proliferation assay of liposomal WBZ—1 formulations; format: cell-based; details: calculated from previous experiments with a similar system
Description: FIG. 12. K562 cells derived from chronic myeloid leukemia (CML) tumors and treated with WBZ—1 liposomal formulation using drug:lipid ratio 1:10. Cells were plated in a 96 well plate at a concentration of 10,000 cells per well and were treated 2 hours later. After 48 hours incubation, an Alamar blue assay was performed. Cells proliferation was expressed as the percentage of proliferating cells compared to the untreated. […] (*) This concentration is the maximum uptake that was calculated based on previous work using a similar system (Tari, 1996). The actual cellular uptake can be considerable lower, even 10^−3 times the effective concentration. The inventors can determine the exact uptake in future experiments using a radiolabeled lipid and prototype compound.
This modification should lead to a selective inhibition of the Bcr-Abl kinase, and indeed it does. […] In order to determine the best lipid formulation to be used, the inventors tested different WBZ—1:MDPC ratios. […] Cell proliferation inhibition was determined by Alamar blue assay after 48 hours of incubation and calculated as percentage of inhibition comparing with the untreated control. All formulations were nontoxic for the cells and a dose response curve was observed. The effective concentration ranges between 0.1 and 1 μM regardless of the lipid:drug ratio used. […]

solubility (observation) = format: physicochemical
Src kinase = assay: kinetic spectrophotometric assay of phosphorylation rate; format: biochemical
Source text: (§1) To assess the specificity and affinity for Src, the staurosporine derivative is compared with the parental compound. […] Kinetic spectrophotometric assays where performed as indicated above. These assays were geared at measuring the phosphorylation rate of peptide substrates in the presence of the kinase inhibitor at different concentrations.

PDK1 = target: T1, PDK1 (Homo sapiens, UniProt O15530); assay: as above; format: biochemical
T1 sequence (O15530 1-556): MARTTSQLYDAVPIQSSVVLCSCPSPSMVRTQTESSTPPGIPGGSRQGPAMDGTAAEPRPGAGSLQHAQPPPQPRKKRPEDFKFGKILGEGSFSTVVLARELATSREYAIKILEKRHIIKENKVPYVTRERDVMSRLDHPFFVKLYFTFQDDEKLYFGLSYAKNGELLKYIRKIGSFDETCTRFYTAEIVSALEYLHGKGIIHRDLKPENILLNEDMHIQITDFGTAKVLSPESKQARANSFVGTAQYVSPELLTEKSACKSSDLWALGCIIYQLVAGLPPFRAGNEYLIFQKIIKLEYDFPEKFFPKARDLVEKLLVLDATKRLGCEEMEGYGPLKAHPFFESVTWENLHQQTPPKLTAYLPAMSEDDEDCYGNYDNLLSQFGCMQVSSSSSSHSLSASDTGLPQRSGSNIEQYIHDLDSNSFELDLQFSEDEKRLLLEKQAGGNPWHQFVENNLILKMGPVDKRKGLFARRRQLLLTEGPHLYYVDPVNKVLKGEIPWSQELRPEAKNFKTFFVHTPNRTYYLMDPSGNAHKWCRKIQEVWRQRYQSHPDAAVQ
Source text: as §1

Chk1 = target: T2, Chk1 (Homo sapiens, UniProt O14757); assay: as above; format: biochemical
T2 sequence (O14757 1-476): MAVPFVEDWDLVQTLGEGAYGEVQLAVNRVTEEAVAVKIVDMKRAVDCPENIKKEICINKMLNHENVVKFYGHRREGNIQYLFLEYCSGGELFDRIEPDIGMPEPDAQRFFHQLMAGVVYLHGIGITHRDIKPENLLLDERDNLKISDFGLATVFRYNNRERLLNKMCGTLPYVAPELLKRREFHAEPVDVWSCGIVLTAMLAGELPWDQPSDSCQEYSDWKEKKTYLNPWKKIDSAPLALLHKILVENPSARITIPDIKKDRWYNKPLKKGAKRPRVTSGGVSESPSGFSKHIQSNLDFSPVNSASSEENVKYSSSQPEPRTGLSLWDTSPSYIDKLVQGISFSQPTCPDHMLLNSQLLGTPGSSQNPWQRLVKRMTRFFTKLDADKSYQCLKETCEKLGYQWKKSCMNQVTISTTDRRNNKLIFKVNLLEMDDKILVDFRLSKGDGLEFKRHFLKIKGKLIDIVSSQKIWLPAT
Source text: as §1

[1] = tested on: brain natriuretic peptide (BNP); assay: RT-PCR of BNP mRNA in left ventricle of treated mice; details: GIST model mice after therapy
JNK1/2 = assay: Western blot of phosphorylated kinases in neonatal rat ventricular myocytes (NRVM); format: cell-based; details: 1-50 μM, 24 h, compared to untreated cells
ERK1/2 = assay: as above; format: cell-based; details: 1-50 μM, 24 h, compared to untreated cultures
Description: This protective role of WBZ—4 has also been validated in vivo. Animals used in these studies were handled in accordance with National Institutes of Health “Guide for the Care and Use of Laboratory Animals” [Department of Health and Human Services Publication No. (NIH) 85-23, Revised 1985]. […] NRVM were isolated from the hearts of 2 day-old Sprague-Dawley rat pups via collagenase digestion as previously described (Samarel and Engelmann, 1991). Dissociated cells were pre-plated for 1 hour in serum-free PC-1 medium to selectively remove nonmuscle cells. Myocytes were then plated in PC-1 medium at a density of 1600 cells per mm^2 onto collagen-coated, plastic 35-mm dishes, and left undisturbed in a 5% CO2 incubator for 24 h. Unattached cells were removed by aspiration, and the attached cells were maintained in a solution of DMEM/Medium 199 (4:1) containing antibiotic/antimycotic solution for 24 h. […] NRVM were homogenized in lysis buffer (Schlaepfer and Hunter, 1996). Equal amounts of extracted proteins were separated on 10% SDS-polyacrylamide gels with 5% stacking gels. […] Primary antibody binding was detected with horseradish-peroxidase conjugated goat anti-mouse or goat anti-rabbit secondary antibody, and visualized by enhanced chemiluminescence.

C-Kit = target: T3, C-Kit (Homo sapiens, UniProt P10721, K642E); assay: Western blot of C-Kit phosphorylation (Tyr703, Tyr721) in ST882 cells; format: cell-based; details: 6 hours, read-out: inhibitory impact on C-Kit phosphorylation in GIST cells
T3 construct: endogenous in cells; host or cells: ST882 (GIST882) cells
Description: A Western blot assay on treated cancer-derived cell lines (FIGS. 8C and 8D) was performed to determine the in-cell specificity of WBZ—4. […] After allowing the cells to attach for 24 hours, the cells were treated with 1 μM of WBZ—4 or Gleevec for 6 hours. For Western blotting, 50 μg of total protein were separated on a SDS-PAGE (Bio-Rad) and blotted onto nitrocellulose membranes (Bio-Rad Laboratories, Life Science Research, Hercules, Calif.). Antibodies used: anti phospho-c-Kit polyclonal antibody, Tyr703 and Tyr721 (Zymed Laboratories Inc., South San Francisco, Calif.), anti-c-Kit monoclonal antibody (E-1): sc-17806 (Santa Cruz Biotechnology) and anti β-actin monoclonal antibody (Sigma, St. Louis, Mo.). K562 cells were plated at 5×10^5 cells/well. […] Antibodies used: anti phospho-c-Abl (Tyr 412) monoclonal antibody 247C7 (Cell Signalling Technology Inc), anti-Abl monoclonal antibody (Sigma, St. Louis, Mo.).

Structure (SMILES): Cc1ccc(NC(=O)c2ccc(CN3CCN(C)CC3)cc2)cc1Nc1nccc(-c2cnccc2C)n1 [WBZ—1, N-{5-[4-(4-methylpiperazinemethyl)-benzoylamido]-2-methylphenyl}-4-[3-(4-methyl)-pyridyl]-2-pyrimidine amine]
- uptake of WBZ—1 after 48 hours (K562 cells): 72 pmol
- solubility (solubility (observation)): insolubility

Structure (SMILES): CN[C@@H]1C[C@H]2O[C@@](C)([C@@H]1OC)n1c3ccccc3c3c4c(c5c6ccccc6n2c5c31)C(=O)N(C)C4 [methylated staurosporine derivative]
- inhibition of Src compared with staurosporine levels (Src kinase): improved
- inhibitory impact against PDK1 (PDK1): very low inhibitory impact
- inhibitory impact against Chk1 (Chk1): very low inhibitory impact

Structure (SMILES): Cc1ccc(NC(=O)c2ccc(CN3CCN(C)CC3)cc2)cc1Nc1nccc(-c2cccnc2)n1 [imatinib, reference compound]
- BNP mRNA levels in the left ventricle, higher than untreated [1]: about 58%
- JNK1/2 activation in cardiomyocytes (JNK1/2): activates JNKs
- phosphorylation state of ERK1/2 in cardiomyocytes (ERK1/2): increased
- inhibition at 1 µM (C-Kit): ~85%
